Laboratory results reported in patent US11141454B2, “Application of earthworm protein peptide in preparation of medicine for preventing and/or treating thrombotic disease” (Zhongshiduqing (Shandong) Biotech Co., Ltd., priority 2019, dated 2021).

Tested on: carrageenan-induced rat tail thrombosis
Test: Carrageenan-induced rat tail thrombosis (black tail rate and length)
Assay type: in vivo, SD rats
Settings: for Black tail rates of rats (%): Aspirin group 7.72 mg/kg intragastric
Procedure: The carrageenan was weighed and prepared into a carrageenan solution (2%) with a concentration of […] using 0.9% NaCl; rats were weighed and injected with carrageenan subcutaneously at a dose of 80 mg/kg; intragastric administration treatment was performed on a prevention group 5 days in advance; after model making for 30 min, intragastric administration treatment was performed on the remaining four groups other than the prevention group according to relevant doses, and then the rats were placed in a constant temperature environment of (18±2)° C., and free diet and water drinking were provided.
A total of 42 SD rats were randomly selected for thrombus model making by using carrageenan. The physiological activities of the rats were observed. The normal saline was used as a blank control group, and an aspirin group was used as a positive control group. A polypeptide (the earthworm protein peptide containing four anticoagulant active polypeptides, namely Leu-Val-Thr-Leu-Gly-Asn-Glu, Leu-Leu-Ala-Pro-Pro, Leu-Leu-Pro-Ala-Pro and Thr-Val-Ala-Pro-Phe prepared in Embodiment 1) and relevant medicines were dissolved with normal saline, and the intragastric administration dose was operated according to Table 2 below. […] After injection of carrageenan in each experimental group and normal saline group, rats with different degrees of blood stasis and black tail appeared 3 to 14 hours after model making, and gradually expanded to the tail root. The measured data was processed by spss18.0 software. In order to compare the differences between different groups, one-way analysis of variance was used. […] If P was smaller than 0.05, it indicated there was significant difference. […] The test results are shown in Table 3 and Table 4 below and in FIGS. 9 to 23.

## CC(=O)Oc1ccccc1C(=O)O [Aspirin, aspirin]
24 h
  Black tail rates of rats (%): 0%
36 h
  Black tail rates of rats (%): 16.7%
48 h
  Black tail rates of rats (%): 16.7%
56 h
  Black tail rates of rats (%): 16.7%
72 h
  Black tail rates of rats (%): 50%
96 h
  Black tail rates of rats (%): 67%
Aspirin group (7.72 mg/kg), after 48 hours, FIG. 9
  black tail inhibition ratio compared with the normal saline group: 75.8%
Aspirin group (7.72 mg/kg), after 48 hours, normal saline 100.13 mm
  length of tail thrombogenesis (black tail length): 24.24 mm
Aspirin group, after 72 hours, FIG. 11
  number of rats with obvious black tail signs: three
